Data reported in a compilation of properties of binary mixtures (doi:10.1016/j.molliq.2018.08.031).

Assay: xn = mol fraction of the nth substance listed
Conditions: 100 kPa

COCCOCCOC + CCCC[n+]1ccn(C)c1.F[P-](F)(F)(F)(F)F
Conditions | viscosity [mPa·s]
283.15 K, x2 = 0.0571 | 2.381
283.15 K, x2 = 0.1013 | 3.238
283.15 K, x2 = 0.2923 | 11.69
283.15 K, x2 = 0.39 | 19.81
283.15 K, x2 = 0.492 | 37.5
283.15 K, x2 = 0.6827 | 114.6
283.15 K, x2 = 0.9711 | 618
293.15 K, x2 = 0.057 | 1.99
293.15 K, x2 = 0.1982 | 4.59
293.15 K, x2 = 0.2963 | 7.91
293.15 K, x2 = 0.3913 | 14.79
293.15 K, x2 = 0.5865 | 39.52
293.15 K, x2 = 0.6814 | 66.5
293.15 K, x2 = 0.7968 | 124.3
293.15 K, x2 = 0.892 | 209.7
303.15 K, x2 = 0.0995 | 1.623
303.15 K, x2 = 0.1973 | 2.826
303.15 K, x2 = 0.2994 | 5.146
303.15 K, x2 = 0.4896 | 14.66
303.15 K, x2 = 0.5893 | 24.8
303.15 K, x2 = 0.6884 | 40.83
303.15 K, x2 = 0.8923 | 113.3
303.15 K, x2 = 0.9596 | 158.7
313.15 K, x2 = 0.057 | 0.953
313.15 K, x2 = 0.0943 | 0.744
313.15 K, x2 = 0.1995 | 0.789
313.15 K, x2 = 0.2856 | 1.631
313.15 K, x2 = 0.4877 | 7.46
313.15 K, x2 = 0.6781 | 21.08
313.15 K, x2 = 0.7994 | 38.25
313.15 K, x2 = 0.8941 | 61
313.15 K, x2 = 0.9553 | 83.2
